Results reported in patent US7989459B2, “Purinones and 1H-imidazopyridinones as PKC-theta inhibitors” (Pharmacopeia, LLC, priority 2006, dated 2011).

What was measured:
PKC delta = PKC delta (Homo sapiens, UniProt Q05655); experiment: Ki Pan Vera (PV) PKC delta; type: biochemical
PKCθ = PKCθ (Homo sapiens, UniProt Q04759); experiment: Ki Pan Vera (PV) PKCθ; type: biochemical
Protocol: (§1) For Ki Pan Vera (PV) of PKCθ, entries identified with “A” had values below 100 nM; entries identified with “B” had values below 1 μM.

PKC alpha = PKC alpha (Homo sapiens, UniProt P17252); experiment: Ki Pan Vera (PV) PKC alpha; type: biochemical
Protocol: [Worded in the source for another target; this target is reported under the same test.] as §1

SGK1 = target: T1, SGK1 (Homo sapiens, UniProt O00141); experiment: IC50 for kinase SGK (selectivity); type: biochemical
T1 sequence (O00141 1-431): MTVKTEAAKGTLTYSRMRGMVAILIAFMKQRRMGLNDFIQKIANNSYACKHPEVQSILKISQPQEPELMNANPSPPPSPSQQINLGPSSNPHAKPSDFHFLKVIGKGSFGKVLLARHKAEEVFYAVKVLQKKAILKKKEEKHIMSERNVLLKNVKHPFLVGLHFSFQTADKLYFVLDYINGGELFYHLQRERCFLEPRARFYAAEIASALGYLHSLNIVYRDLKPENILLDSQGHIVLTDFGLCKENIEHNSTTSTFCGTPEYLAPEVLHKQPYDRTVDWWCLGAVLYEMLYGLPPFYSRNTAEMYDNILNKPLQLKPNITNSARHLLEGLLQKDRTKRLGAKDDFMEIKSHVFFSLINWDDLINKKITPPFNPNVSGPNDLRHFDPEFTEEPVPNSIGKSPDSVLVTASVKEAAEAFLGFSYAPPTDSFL
Protocol: Entries identified with “1” had values above 15 nM; entries identified with “2” had values above 100 nM; entries identified with “3” had values above 1 μM; entries identified with “4” had values above 10 μM. In Table 2, “nd” stands for “not determined.”

[1] = system: anti-CD3 induced interleukin-2 (IL-2) production; experiment: anti-CD3 induced IL-2 production in mice; type: in vivo
Protocol: The compounds of the invention were also tested in vivo.

Chain of PKC delta (Q05655 whole entry): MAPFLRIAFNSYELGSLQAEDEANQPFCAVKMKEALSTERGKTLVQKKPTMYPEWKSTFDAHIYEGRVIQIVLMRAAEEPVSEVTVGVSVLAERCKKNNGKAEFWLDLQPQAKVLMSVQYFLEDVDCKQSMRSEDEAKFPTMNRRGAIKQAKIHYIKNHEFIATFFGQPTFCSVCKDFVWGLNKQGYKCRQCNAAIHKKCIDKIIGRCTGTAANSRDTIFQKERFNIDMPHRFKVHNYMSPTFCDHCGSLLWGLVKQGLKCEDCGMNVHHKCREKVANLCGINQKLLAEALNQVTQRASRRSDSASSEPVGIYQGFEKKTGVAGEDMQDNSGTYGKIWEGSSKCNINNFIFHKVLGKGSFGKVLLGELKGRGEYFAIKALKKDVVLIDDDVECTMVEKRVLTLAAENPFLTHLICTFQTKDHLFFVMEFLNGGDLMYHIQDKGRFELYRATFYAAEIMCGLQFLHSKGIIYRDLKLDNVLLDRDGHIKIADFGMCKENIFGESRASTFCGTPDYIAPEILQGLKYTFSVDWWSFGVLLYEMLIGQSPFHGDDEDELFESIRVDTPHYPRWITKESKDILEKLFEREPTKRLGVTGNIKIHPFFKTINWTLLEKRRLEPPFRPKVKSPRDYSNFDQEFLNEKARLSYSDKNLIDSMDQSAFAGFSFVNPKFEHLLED
Chain of PKCθ (Q04759 whole entry): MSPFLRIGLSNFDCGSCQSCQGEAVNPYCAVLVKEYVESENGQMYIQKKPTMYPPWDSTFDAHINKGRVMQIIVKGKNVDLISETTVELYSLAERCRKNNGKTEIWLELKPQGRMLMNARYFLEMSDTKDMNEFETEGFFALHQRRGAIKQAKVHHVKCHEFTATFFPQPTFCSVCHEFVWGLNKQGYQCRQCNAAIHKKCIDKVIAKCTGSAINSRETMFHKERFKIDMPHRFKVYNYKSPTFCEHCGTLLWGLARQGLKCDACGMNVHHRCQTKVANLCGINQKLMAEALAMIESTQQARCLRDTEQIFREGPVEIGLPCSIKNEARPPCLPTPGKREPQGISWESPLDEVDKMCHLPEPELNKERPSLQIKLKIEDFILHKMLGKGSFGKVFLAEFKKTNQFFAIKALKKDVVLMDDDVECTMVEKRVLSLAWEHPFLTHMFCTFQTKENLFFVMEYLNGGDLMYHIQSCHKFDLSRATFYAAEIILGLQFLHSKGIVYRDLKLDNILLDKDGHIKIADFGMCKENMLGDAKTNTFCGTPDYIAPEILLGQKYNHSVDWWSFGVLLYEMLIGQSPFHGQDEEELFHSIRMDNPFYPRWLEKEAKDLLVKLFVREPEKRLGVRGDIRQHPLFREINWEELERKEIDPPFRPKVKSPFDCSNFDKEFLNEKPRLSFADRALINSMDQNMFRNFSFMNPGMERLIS

| Compound | Ki (PKC delta) [nM] | Ki (PKCθ) [nM] | Ki (PKC alpha) [nM] | IC50-SGK1 (nM) (SGK1) | IC50 (SGK1) [nM] | % inhibition of IL-2 production ([1]; subcutaneous dose 30 mg/kg) [%] | % inhibition of IL-2 production ([1]; subcutaneous dose 1 mg/kg) [%] |
| --- | --- | --- | --- | --- | --- | --- | --- |
| O=c1[nH]c2cnc(NCCCn3ccnc3)nc2n1Cc1c(Cl)cccc1C(F)(F)F [Compound 207] | > 100 | < 1000 | > 10000 |  |  |  |  |
| O=c1[nH]c2cnc(NCC3CCNCC3)nc2n1Cc1ccccc1Cl [Compound 206] | > 100 | < 1000 | > 10000 | Inactive |  |  |  |
| NCCCNc1ncc2[nH]c(=O)n(Cc3ccccc3Br)c2n1 [Compound 127] | > 100 | < 100 | > 10000 |  | > 1000 |  |  |
| O=c1[nH]c2cnc(NC[C@@H]3CCCNC3)nc2n1Cc1c(Cl)cccc1Cl [Compound 138] | > 100 | < 100 | > 10000 |  | > 10000 |  |  |
| O=c1[nH]c2cnc(NC[C@@H]3CCNC3)nc2n1Cc1ccccc1Cl [Compound 128] | > 100 | < 1000 | > 10000 |  | > 10000 |  |  |
| O=c1[nH]c2cnc(NCC3CCNC3)nc2n1Cc1c(F)cccc1F (stereo not drawn) [Compound 119] | > 100 | < 100 | > 10000 | Inactive |  |  |  |
| O=c1[nH]c2cnc(NC[C@@H]3CCNC3)nc2n1Cc1ccccc1C(F)(F)F [Compound 116] | > 100 | < 100 | > 1000 |  | > 10000 |  |  |
| O=c1[nH]c2cnc(NC[C@H]3CCNC3)nc2n1Cc1ccccc1C(F)(F)F [Compound 122] | > 100 | < 100 | > 1000 | Inactive |  |  |  |
| NCCCNc1ncc2[nH]c(=O)n(Cc3cc(Cl)ccc3Cl)c2n1 [Compound 115] | > 100 | < 100 | > 1000 |  |  | 40 |  |
| O=c1[nH]c2cnc(NCC3CCNCC3)nc2n1-c1cccc(Cl)c1 [Compound 224] | > 1000 | < 1000 | > 1000 |  |  |  |  |
| NCCCNc1ncc2[nH]c(=O)n(Cc3ccccc3OC(F)(F)F)c2n1 [Compound 139] | > 1000 | < 1000 | > 10000 | Inactive |  |  |  |
| C=CC[C@@H]1/C=C(\C)C[C@H](C)C[C@H](OC)[C@H]2O[C@@](O)(C(=O)C(=O)N3CCCC[C@H]3C(=O)O[C@H](/C(C)=C/[C@@H]3CC[C@@H](O)[C@H](OC)C3)[C@H](C)[C@@H](O)CC1=O)[C@H](C)C[C@@H]2OC [FK506, reference compound] |  |  |  |  |  |  | 87 |
| O=c1[nH]c2cnc(NC[C@H]3CCCNC3)nc2n1Cc1ccccc1C(F)(F)F [Compound 142] | > 100 | < 1000 | > 10000 |  | > 10000 |  |  |
| NCCCNc1ncc2[nH]c(=O)n(Cc3c(F)cccc3F)c2n1 [Compound 129] | > 100 | < 100 | > 10000 | Inactive |  |  |  |
| NCCCNc1ncc2[nH]c(=O)n(Cc3cccc(Cl)c3)c2n1 [Compound 214] | > 1000 | < 1000 | > 10000 |  |  |  |  |
| NCCCNc1ccc2[nH]c(=O)n(Cc3c(Cl)cccc3Cl)c2n1 [Compound 149] | > 100 | < 100 | > 10000 | Inactive |  |  |  |
| Cc1ccccc1Cn1c(=O)[nH]c2cnc(NCCCN)nc21 [Compound 216] | > 1000 | < 1000 | > 10000 |  |  |  |  |
| COc1ccccc1Cn1c(=O)[nH]c2cnc(NCCCN)nc21 [Compound 218] | > 1000 | < 1000 | > 10000 |  |  |  |  |
| O=c1[nH]c2cnc(NCC3CCNC3)nc2n1Cc1c(Cl)cccc1Cl (stereo not drawn) [Compound 108] | > 15 | < 100 | > 1000 |  | > 10000 |  |  |
| O=c1[nH]c2cnc(NCC3CCNC3)nc2n1Cc1ccccc1C(F)(F)F (stereo not drawn) [Compound 109] | > 15 | < 100 | > 1000 |  |  |  |  |
| O=c1[nH]c2cnc(NCC3CCNCC3)nc2n1Cc1ccccc1Br [Compound 201] | > 100 | < 1000 | > 1000 |  | > 10000 |  |  |
| NCCCNc1ncc2[nH]c(=O)n(Cc3ccccc3Cl)c2n1 [Compound 124] | > 100 | < 100 | > 10000 |  | > 10000 |  |  |
| O=c1[nH]c2cnc(NCC3CCCNC3)nc2n1Cc1ccccc1Cl (stereo not drawn) [Compound 203] | > 100 | < 1000 | > 10000 | Inactive |  |  |  |
| O=c1[nH]c2cnc(NCC3CCNCC3)nc2n1Cc1ccccc1C(F)(F)F [Compound 145] | > 1000 | < 1000 | > 10000 | Inactive |  |  |  |
